Experimental data reported in US20100285959A1, “HERBICIDAL MIXTURES” (priority 2006, published 2010).

Tests used:
giant foxtail (SETFA) = assay: Test 10 field trial, preemergence; format: in vivo, Setaria faberi; conditions: 28 DAA; g a.i./ha: Cpd 2 100, Atrazine 1680, S-Metolachlor 1870
From the text: Corn seeds (hybrid ‘Pioneer 33P65 RR’) were planted in mid spring season, 2.5 cm deep in a silt loam soil. Plots were 9.1 m long by 3.0 m wide with rows spaced 76 cm apart. The field was managed using conventional tillage practices. […] Results are the means of the three replicates.

yellow foxtail (SETLU) = assay: Test 6 field trial, postemergence; format: in vivo, Setaria glauca; conditions: 1120 g a.i./ha
From the text: (§1) Corn seeds (hybrid ‘Pioneer 35Y62’) were planted in mid spring season, 3.8 cm deep in a silt loam soil having 4% organic matter and a pH of 5.8. Plots were 10.7 m long by 1.5 m wide with rows spaced 76 cm apart. Seeds were spaced 18 cm apart within the rows. The field was managed using conventional tillage practices. […] All treatments included a surfactant except glufosinate treatments, both alone and in combination. […] Results are summarized in Table 6 and are the means of the three replicates.

goosegrass (ELEIN) = assay: Test 11 field trial, preemergence; format: in vivo, Eleusine indica
From the text: (§2) Corn seeds (hybrid ‘Pioneer 3041’) were planted in mid spring season, 5 cm deep in a clay soil having 2.6% organic matter and a pH of 5.6. Plots were 8 m long by 1.5 m wide with rows spaced 80 cm apart. Seeds were spaced 15 cm apart within the rows. The field was managed using conventional tillage practices. […] Treatments consisted of Compound 2 or
(§3) Goosegrass was not evaluated 16 or 91 days after application.

[1] = test system: Pennsylvania smartweed (POLPY); assay: Test 1 field trial, preemergence; format: in vivo, Polygonum pensylvanicum; conditions: g a.i./ha: Atrazine 1680, S-Metolachlor 1870
From the text: (§4) Corn seeds (hybrid ‘Pioneer 34N43’) were planted in mid spring season, 3.8 cm deep in a silt loam soil having 4.6% organic matter and a pH of 6. Plots were 10.7 m long by 1.5 m wide with rows spaced 76 cm apart. Seeds were spaced 18 cm apart within the rows. The field was managed using conventional tillage practices. […] Results are summarized in Table 1 and are the means of the three replicates. […] Colby's Equation (Colby, S. R. “Calculating Synergistic and Antagonistic Responses of Herbicide Combinations,” Weeds, 15(1), pp 20-22 (1967)) calculates the expected additive effect of herbicidal mixtures, and for two active ingredients is of the form:
(§5) Pa+b=Pa+Pb−(PaPb/100) • wherein Pa+b is the percentage effect of the mixture expected from additive contribution of the individual components, • Pa is the observed percentage effect of the first active ingredient at the same use rate as in the mixture, and • Pb is the observed percentage effect of the second active ingredient at the same use rate as in the mixture.

common ragweed (AMBEL) = assay: Test 5 field trial, postemergence; format: in vivo, Ambrosia artemisiifolia; conditions: atrazine 1120, glufosinate 470 or glyphosate 1120 g a.i./ha alone
From the text: (§6) Corn seeds (hybrid ‘Pioneer 38H69’) were planted in mid spring season, 5.1 cm deep in a silty clay loam soil having 3% organic matter and a pH of 6.5. Plots were 9.1 m long by 3.0 m wide with rows spaced 76 cm apart. The field was managed using conventional tillage practices. […] All treatments included a surfactant except glufosinate treatments, both alone and in combination. […] Results are summarized in Table 5 and are the means of the three replicates.

[2] = test system: tropical spiderwort (COMBE); assay: Test 11 field trial, preemergence; format: in vivo, Commelina benghalensis; set-up: scale not given here
From the text: as §2, §3

corn (ZEAMD) = assay: Test 6 field trial, postemergence; format: in vivo, Zea mays ssp. indentata; conditions: 1120 g a.i./ha
From the text: as §1

[3] = test system: common lambsquarters (CHEAL); assay: Test 8 field trial, preemergence; format: in vivo, Chenopodium album; conditions: g a.i./ha: Cpd 2 100, Atrazine 1680, S-Metolachlor 1870
From the text: Corn seeds (hybrid ‘Pioneer 31G96’) were planted in mid spring season, 3.8 cm deep in a clay loam soil having 2% organic matter and a pH of 6.6. Plots were 6.1 m long by 3.0 m wide with rows spaced 76 cm apart. Seeds were spaced 15 cm apart within the rows. The field was managed using conventional tillage practices. […] A few of the weed species could not be evaluated at every timing. […] Results are the means of the three replicates.

velvetleaf (ABUTH) [4] = assay: Test 1 field trial, preemergence; format: in vivo, Abutilon theophrasti; set-up: scale not given here; conditions: g a.i./ha: Atrazine 1680, S-Metolachlor 1870
From the text: as §4, §5

velvetleaf (ABUTH) [5] = assay: Test 6 field trial, postemergence; format: in vivo, Abutilon theophrasti; conditions: 1120 g a.i./ha
From the text: as §1

arrowleaf sida (SIDRH) = assay: Test 11 field trial, preemergence; format: in vivo, Sida rhombifolia
From the text: as §2, §3

large crabgrass (DIGSA) = assay: Test 5 field trial, postemergence; format: in vivo, Digitaria sanguinalis; conditions: atrazine 1120, glufosinate 470 or glyphosate 1120 g a.i./ha alone
From the text: as §6

[6] = test system: common lambsquarters (CHEAL); assay: Test 6 field trial, postemergence; format: in vivo, Chenopodium album; conditions: 1120 g a.i./ha
From the text: as §1

[7] = 30 DAA, atrazine 1500 or metolachlor 2500 g a.i./ha alone
[8] = 44 DAA, atrazine 1500 or metolachlor 2500 g a.i./ha alone
[9] = 62 DAA, 1500 g a.i./ha, scale 0 to 100
[10] = 16 DAA, atrazine 1500 or metolachlor 2500 g a.i./ha alone
[11] = 30 DAA, Cpd 2/Cpd 1 at 62 g a.i./ha, alone or + atrazine 1500 or metolachlor 2500
[12] = 30 DAA, Cpd 2/Cpd 1 at 125 g a.i./ha, alone or + atrazine 1500 or metolachlor 2500
[13] = 44 DAA, 62 g a.i./ha, scale 0 to 100
[14] = 44 DAA, 125 g a.i./ha, scale 0 to 100
[15] = 62 DAA, 62 g a.i./ha, scale 0 to 100
[16] = 62 DAA, 125 g a.i./ha, scale 0 to 100
[17] = 16 DAA, Cpd 2/Cpd 1 at 62 g a.i./ha, alone or + atrazine 1500 or metolachlor 2500
[18] = 16 DAA, Cpd 2/Cpd 1 at 125 g a.i./ha, alone or + atrazine 1500 or metolachlor 2500

## CCNc1nc(Cl)nc(NC(C)C)n1 [Atrazine, atrazine, reference compound]
Giant foxtail (SETFA)
  SETFA Obs: 23%
Yellow foxtail (SETLU); 14 DAA
  SETLU Obs: 0%
Yellow foxtail (SETLU); 28 DAA
  SETLU Obs: 0%
Goosegrass (ELEIN); [7]
  ELEIN Obs: 95
Goosegrass (ELEIN); [8]
  ELEIN Obs: 100
Goosegrass (ELEIN); [9]
  ELEIN Obs: 100
[1]; 28 DAA
  POLPY Obs: 93
[1]; 56 DAA
  POLPY Obs: 100
Common ragweed (AMBEL); 16 DAA
  AMBEL Obs: 45%
Common ragweed (AMBEL); 31 DAA
  AMBEL Obs: 30%
[2]; [10]
  COMBE Obs: 99
[2]; [7]
  COMBE Obs: 100
[2]; [8]
  COMBE Obs: 100
[2]; 62 DAA, atrazine 1500 or metolachlor 2500 g a.i./ha alone
  COMBE Obs: 97
[2]; 91 DAA, atrazine 1500 or metolachlor 2500 g a.i./ha alone
  COMBE Obs: 95
Corn (ZEAMD); 14 DAA
  ZEAMD Obs: 0%
Corn (ZEAMD); 28 DAA
  ZEAMD Obs: 0%
[3]; 19 DAA
  CHEAL Obs: 100%
[3]; 56 DAA
  CHEAL Obs: 100%
Velvetleaf (ABUTH) [4]; 28 DAA
  ABUTH Obs: 75
Velvetleaf (ABUTH) [4]; 56 DAA
  ABUTH Obs: 0
Velvetleaf (ABUTH) [5]; 14 DAA
  ABUTH Obs: 0%
Velvetleaf (ABUTH) [5]; 28 DAA
  ABUTH Obs: 0%
Arrowleaf sida (SIDRH); [10]
  SIDRH Obs: 97
Arrowleaf sida (SIDRH); [7]
  SIDRH Obs: 100
Arrowleaf sida (SIDRH); [8]
  SIDRH Obs: 95
Arrowleaf sida (SIDRH); [9]
  SIDRH Obs: 80
Arrowleaf sida (SIDRH); 91 DAA, 1500 g a.i./ha, scale 0 to 100
  SIDRH Obs: 90
Large crabgrass (DIGSA); 16 DAA
  DIGSA Obs: 0%
Large crabgrass (DIGSA); 31 DAA
  DIGSA Obs: 0%
[6]; 14 DAA
  CHEAL Obs: 100%
[6]; 28 DAA
  CHEAL Obs: 100%

## O=C(O)CNCP(=O)(O)O [Glyphosate]
Yellow foxtail (SETLU); 14 DAA
  SETLU Obs: 97%
Yellow foxtail (SETLU); 28 DAA
  SETLU Obs: 96%
Common ragweed (AMBEL); 16 DAA
  AMBEL Obs: 84%
Common ragweed (AMBEL); 31 DAA
  AMBEL Obs: 100%
Corn (ZEAMD); 14 DAA
  ZEAMD Obs: 0%
Corn (ZEAMD); 28 DAA
  ZEAMD Obs: 0%
Velvetleaf (ABUTH) [5]; 14 DAA
  ABUTH Obs: 99%
Velvetleaf (ABUTH) [5]; 28 DAA
  ABUTH Obs: 100%
Large crabgrass (DIGSA); 16 DAA
  DIGSA Obs: 98%
Large crabgrass (DIGSA); 31 DAA
  DIGSA Obs: 95%
[6]; 14 DAA
  CHEAL Obs: 100%
[6]; 28 DAA
  CHEAL Obs: 100%

## Nc1nc(C2CC2)nc(C(=O)O)c1Cl [Compound 1, 6-amino-5-chloro-2-cyclopropyl-4-pyrimidinecarboxylic acid]
Goosegrass (ELEIN); [11]
  ELEIN Obs: 0
Goosegrass (ELEIN); [12]
  ELEIN Obs: 20
Goosegrass (ELEIN); [13]
  ELEIN Obs: 0
Goosegrass (ELEIN); [14]
  ELEIN Obs: 0
Goosegrass (ELEIN); [15]
  ELEIN Obs: 0
Goosegrass (ELEIN); [16]
  ELEIN Obs: 0
[2]; [17]
  COMBE Obs: 40
[2]; [18]
  COMBE Obs: 60
[2]; [11]
  COMBE Obs: 60
[2]; [12]
  COMBE Obs: 95
[2]; 44 DAA, Cpd 2/Cpd 1 at 62 g a.i./ha, alone or + atrazine 1500 or metolachlor 2500
  COMBE Obs: 60
[2]; 44 DAA, Cpd 2/Cpd 1 at 125 g a.i./ha, alone or + atrazine 1500 or metolachlor 2500
  COMBE Obs: 95
[2]; 62 DAA, Cpd 2/Cpd 1 at 62 g a.i./ha, alone or + atrazine 1500 or metolachlor 2500
  COMBE Obs: 40
[2]; 62 DAA, Cpd 2/Cpd 1 at 125 g a.i./ha, alone or + atrazine 1500 or metolachlor 2500
  COMBE Obs: 60
[2]; 91 DAA, Cpd 2/Cpd 1 at 62 g a.i./ha, alone or + atrazine 1500 or metolachlor 2500
  COMBE Obs: 0
[2]; 91 DAA, Cpd 2/Cpd 1 at 125 g a.i./ha, alone or + atrazine 1500 or metolachlor 2500
  COMBE Obs: 70
Arrowleaf sida (SIDRH); [17]
  SIDRH Obs: 40
Arrowleaf sida (SIDRH); [18]
  SIDRH Obs: 75
Arrowleaf sida (SIDRH); [11]
  SIDRH Obs: 60
Arrowleaf sida (SIDRH); [12]
  SIDRH Obs: 65
Arrowleaf sida (SIDRH); [13]
  SIDRH Obs: 75
Arrowleaf sida (SIDRH); [14]
  SIDRH Obs: 95
Arrowleaf sida (SIDRH); [15]
  SIDRH Obs: 40
Arrowleaf sida (SIDRH); [16]
  SIDRH Obs: 95
Arrowleaf sida (SIDRH); 91 DAA, 62 g a.i./ha, scale 0 to 100
  SIDRH Obs: 0
Arrowleaf sida (SIDRH); 91 DAA, 125 g a.i./ha, scale 0 to 100
  SIDRH Obs: 100

## CCc1cccc(C)c1N(C(=O)CCl)[C@@H](C)COC [S-Metolachlor, S-metolachlor, reference compound]
Giant foxtail (SETFA)
  SETFA Obs: 63%
[1]; 28 DAA
  POLPY Obs: 57
[1]; 56 DAA
  POLPY Obs: 20
[3]; 19 DAA
  CHEAL Obs: 45%
[3]; 56 DAA
  CHEAL Obs: 23%
Velvetleaf (ABUTH) [4]; 28 DAA
  ABUTH Obs: 33
Velvetleaf (ABUTH) [4]; 56 DAA
  ABUTH Obs: 0
